Reference: PubChem BioAssay AID1918993 (Molecular Pharmacology Branch, DTP, NCI, 2023)

Test system: 233499-124-R-J3-PDC complex spheroid growth
Test: Anticancer human tumor 233499-124-R-J3-PDC patient-derived colon adenocarcinoma cell line growth inhibition [AhR]
Settings: for IC50: curve of first compound; for viability, T/C: stronger effect = lower value
How it was run: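 Agents were dosed in half-log steps down from roughly clinical Cmax, or from 10 microM where Cmax was unknown, alone and with AhR antagonists. Read-out: percent test/control growth of tumor spheroids containing HUVEC and MSC stromal cells.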

[1] = second compound 0.1 µM, first compound 0.0316 µM
[2] = second compound 0.1 µM, first compound 0.1 µM
[3] = second compound 0.1 µM, first compound 0.316 µM
[4] = second compound 0.1 µM, first compound 1 µM
[5] = second compound 0.1 µM, first compound 3.16 µM
[6] = second compound 0.1 µM, first compound 10 µM
[7] = second compound 0.316 µM, first compound 0.0316 µM
[8] = second compound 0.316 µM, first compound 0.1 µM
[9] = second compound 0.316 µM, first compound 0.316 µM
[10] = second compound 0.316 µM, first compound 1 µM
[11] = second compound 0.316 µM, first compound 3.16 µM
[12] = second compound 0.316 µM, first compound 10 µM
[13] = second compound 1 µM, first compound 0.0316 µM
[14] = second compound 1 µM, first compound 0.1 µM
[15] = second compound 1 µM, first compound 0.316 µM
[16] = second compound 1 µM, first compound 1 µM
[17] = second compound 1 µM, first compound 3.16 µM
[18] = second compound 1 µM, first compound 10 µM
[19] = second compound 3.16 µM, first compound 0.0316 µM
[20] = second compound 3.16 µM, first compound 0.1 µM
[21] = second compound 3.16 µM, first compound 0.316 µM
[22] = second compound 3.16 µM, first compound 1 µM
[23] = second compound 3.16 µM, first compound 3.16 µM
[24] = second compound 3.16 µM, first compound 10 µM
[25] = second compound 10 µM, first compound 0.0316 µM
[26] = second compound 10 µM, first compound 0.1 µM
[27] = second compound 10 µM, first compound 0.316 µM
[28] = second compound 10 µM, first compound 1 µM
[29] = second compound 10 µM, first compound 3.16 µM
[30] = second compound 10 µM, first compound 10 µM
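Note: spheroids exposed to agents for seven days before reading.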

With `CC(C)c1c(-c2ccccc2)nc2c(C#N)c[nH]n2c1=O` + Cc1ccccc1N=Nc1ccc(NC(=O)c2ccnn2C)c(C)c1 the IC50 (second compound 0.1 µM) was > 10 µM, the IC50 (second compound 0.316 µM) was > 10 µM and the IC50 (second compound 1 µM) was > 10 µM. The IC50 (second compound 3.16 µM) was > 10 µM, the IC50 (second compound 10 µM) was > 10 µM and the viability, T/C [1] was 110%. For the same compound, the viability, T/C [2] was 98.9%, the viability, T/C [3] was 101% and the viability, T/C [4] was 112%. The viability, T/C [5] was 95.2%, the viability, T/C [6] was 105% and the viability, T/C [7] was 100%. It also gave a viability, T/C [8] of 108%, a viability, T/C [9] of 92.3% and a viability, T/C [10] of 104%. The viability, T/C [11] was 118%, the viability, T/C [12] was 107% and the viability, T/C [13] was 110%. It also gave a viability, T/C [14] of 110%, a viability, T/C [15] of 98.7% and a viability, T/C [16] of 102%. It also gave a viability, T/C [17] of 106%, a viability, T/C [18] of 106% and a viability, T/C [19] of 102%. The viability, T/C [20] was 99.5%, the viability, T/C [21] was 103% and the viability, T/C [22] was 110%. For the same compound, the viability, T/C [23] was 108%, the viability, T/C [24] was 105% and the viability, T/C [25] was 103%. The viability, T/C [26] was 102%, the viability, T/C [27] was 107% and the viability, T/C [28] was 101%. The viability, T/C [29] was 89% and the viability, T/C [30] was 85.3%.
In the case of `CC1COCCN1c1cc(-c2ccnn2C)c2ccnc(-c3ccn[nH]3)c2n1` (stereo not given) + Cc1ccccc1N=Nc1ccc(NC(=O)c2ccnn2C)c(C)c1, the IC50 (second compound 0.1 µM) is reported as > 1 µM, the IC50 (second compound 0.316 µM) is reported as > 1 µM and the IC50 (second compound 1 µM) is reported as 0.984 µM. The IC50 (second compound 3.16 µM) was > 1 µM, the IC50 (second compound 10 µM) was > 1 µM and the viability, T/C (second compound 0.1 µM, first compound 0.00316 µM) was 91.3%. For the same compound, the viability, T/C (second compound 0.1 µM, first compound 0.01 µM) was 98.8%, the viability, T/C [1] was 105% and the viability, T/C [2] was 93.9%. For the same compound, the viability, T/C [3] was 68.2%, the viability, T/C [4] was 55.1% and the viability, T/C (second compound 0.316 µM, first compound 0.00316 µM) was 99.4%. It also gave a viability, T/C (second compound 0.316 µM, first compound 0.01 µM) of 93.9%, a viability, T/C [7] of 92.2% and a viability, T/C [8] of 92.3%. It also gave a viability, T/C [9] of 75%, a viability, T/C [10] of 50.7% and a viability, T/C (second compound 1 µM, first compound 0.00316 µM) of 87.1%. It also gave a viability, T/C (second compound 1 µM, first compound 0.01 µM) of 97.1%, a viability, T/C [13] of 85.6% and a viability, T/C [14] of 91.8%. The viability, T/C [15] was 81.6%, the viability, T/C [16] was 49.3% and the viability, T/C (second compound 3.16 µM, first compound 0.00316 µM) was 91.8%. It also gave a viability, T/C (second compound 3.16 µM, first compound 0.01 µM) of 103%, a viability, T/C [19] of 85% and a viability, T/C [20] of 74%. For the same compound, the viability, T/C [21] was 57.2%, the viability, T/C [22] was 58% and the viability, T/C (second compound 10 µM, first compound 0.00316 µM) was 103%. The viability, T/C (second compound 10 µM, first compound 0.01 µM) was 99.3%, the viability, T/C [25] was 101% and the viability, T/C [26] was 80.5%. The viability, T/C [27] was 74.5% and the viability, T/C [28] was 58.7%.
For `COc1ccc([C@@H](O)c2cc(-c3ncnc4cc(N5CCOCC5)ccc34)c(F)cc2Cl)nn1` + Cc1ccccc1N=Nc1ccc(NC(=O)c2ccnn2C)c(C)c1, the IC50 (second compound 0.1 µM) was > 10 µM, the IC50 (second compound 0.316 µM) was > 10 µM and the IC50 (second compound 1 µM) was > 10 µM. The IC50 (second compound 3.16 µM) was > 10 µM, the IC50 (second compound 10 µM) was > 10 µM and the viability, T/C [1] was 90.3%. The viability, T/C [2] was 98.9%, the viability, T/C [3] was 96.8% and the viability, T/C [4] was 104%. It also gave a viability, T/C [5] of 101%, a viability, T/C [6] of 89.2% and a viability, T/C [7] of 97.3%. It also gave a viability, T/C [8] of 101%, a viability, T/C [9] of 86.3% and a viability, T/C [10] of 102%. For the same compound, the viability, T/C [11] was 92%, the viability, T/C [12] was 63.6% and the viability, T/C [13] was 104%. It also gave a viability, T/C [14] of 98.4%, a viability, T/C [15] of 102% and a viability, T/C [16] of 95.7%. The viability, T/C [17] was 85.5%, the viability, T/C [18] was 90.2% and the viability, T/C [19] was 99.5%. For the same compound, the viability, T/C [20] was 101%, the viability, T/C [21] was 93.5% and the viability, T/C [22] was 97.8%. It also gave a viability, T/C [23] of 92.2%, a viability, T/C [24] of 76.3% and a viability, T/C [25] of 90.5%. The viability, T/C [26] was 90.3%, the viability, T/C [27] was 85.6% and the viability, T/C [28] was 94.6%. The viability, T/C [29] was 91.4% and the viability, T/C [30] was 60.6%.
`O=C(C=Cn1cnc(-c2cc(C(F)(F)F)cc(C(F)(F)F)c2)n1)NNc1cnccn1` + Cc1ccccc1N=Nc1ccc(NC(=O)c2ccnn2C)c(C)c1 was tested, and the IC50 (second compound 0.1 µM) was > 3 µM, the IC50 (second compound 0.316 µM) was > 3 µM and the IC50 (second compound 1 µM) was > 3 µM. The IC50 (second compound 3.16 µM) was > 3 µM, the IC50 (second compound 10 µM) was > 3 µM and the viability, T/C (second compound 0.1 µM, first compound 0.00949 µM) was 109%. It also gave a viability, T/C (second compound 0.1 µM, first compound 0.03 µM) of 91.2%, a viability, T/C (second compound 0.1 µM, first compound 0.0949 µM) of 110% and a viability, T/C (second compound 0.1 µM, first compound 0.3 µM) of 86.7%. For the same compound, the viability, T/C (second compound 0.1 µM, first compound 0.949 µM) was 96%, the viability, T/C (second compound 0.1 µM, first compound 3 µM) was 61% and the viability, T/C (second compound 0.316 µM, first compound 0.00949 µM) was 104%. It also gave a viability, T/C (second compound 0.316 µM, first compound 0.03 µM) of 113%, a viability, T/C (second compound 0.316 µM, first compound 0.0949 µM) of 111% and a viability, T/C (second compound 0.316 µM, first compound 0.3 µM) of 96.4%. For the same compound, the viability, T/C (second compound 0.316 µM, first compound 0.949 µM) was 87.3%, the viability, T/C (second compound 0.316 µM, first compound 3 µM) was 76.8% and the viability, T/C (second compound 1 µM, first compound 0.00949 µM) was 97.8%. The viability, T/C (second compound 1 µM, first compound 0.03 µM) was 98.3%, the viability, T/C (second compound 1 µM, first compound 0.0949 µM) was 116% and the viability, T/C (second compound 1 µM, first compound 0.3 µM) was 100%. It also gave a viability, T/C (second compound 1 µM, first compound 0.949 µM) of 78%, a viability, T/C (second compound 1 µM, first compound 3 µM) of 77.8% and a viability, T/C (second compound 3.16 µM, first compound 0.00949 µM) of 98%. For the same compound, the viability, T/C (second compound 3.16 µM, first compound 0.03 µM) was 99.1%, the viability, T/C (second compound 3.16 µM, first compound 0.0949 µM) was 92.8% and the viability, T/C (second compound 3.16 µM, first compound 0.3 µM) was 86.8%. For the same compound, the viability, T/C (second compound 3.16 µM, first compound 0.949 µM) was 93.2%, the viability, T/C (second compound 3.16 µM, first compound 3 µM) was 70.8% and the viability, T/C (second compound 10 µM, first compound 0.00949 µM) was 101%. It also gave a viability, T/C (second compound 10 µM, first compound 0.03 µM) of 85%, a viability, T/C (second compound 10 µM, first compound 0.0949 µM) of 85.3% and a viability, T/C (second compound 10 µM, first compound 0.3 µM) of 108%. For the same compound, the viability, T/C (second compound 10 µM, first compound 0.949 µM) was 85.6% and the viability, T/C (second compound 10 µM, first compound 3 µM) was 50.2%.
For `COc1cccc2c1C(=O)c1c(O)c3c(c(O)c1C2=O)CC(O)(C(=O)CO)CC3OC1CC(N)C(O)C(C)O1` (stereo not given) + Cc1cncc(-c2nc(NCCc3c[nH]c4ccccc34)c3ncn(C(C)C)c3n2)c1, the IC50 (second compound 0.1 µM) was 8.48 µM, the IC50 (second compound 0.316 µM) was > 10 µM and the IC50 (second compound 1 µM) was 2.77 µM. The IC50 (second compound 3.16 µM) was 1.35 µM, the IC50 (second compound 10 µM) was < 0.0316 µM and the viability, T/C [1] was 102%. For the same compound, the viability, T/C [2] was 84.1%, the viability, T/C [3] was 80.3% and the viability, T/C [4] was 83.2%. It also gave a viability, T/C [5] of 49.3%, a viability, T/C [6] of 51.2% and a viability, T/C [7] of 73.8%. It also gave a viability, T/C [8] of 90.8%, a viability, T/C [9] of 79.8% and a viability, T/C [10] of 78%. It also gave a viability, T/C [11] of 61.3%, a viability, T/C [12] of 50.6% and a viability, T/C [13] of 87.4%. For the same compound, the viability, T/C [14] was 72.8%, the viability, T/C [15] was 76.9% and the viability, T/C [16] was 71%. The viability, T/C [17] was 46.9%, the viability, T/C [18] was 32.5% and the viability, T/C [19] was 81.8%. For the same compound, the viability, T/C [20] was 87.1%, the viability, T/C [21] was 77.5% and the viability, T/C [22] was 60.8%. The viability, T/C [23] was 21.3%, the viability, T/C [24] was 4.5% and the viability, T/C [25] was 7.64%. It also gave a viability, T/C [26] of 13.7%, a viability, T/C [27] of 41% and a viability, T/C [28] of 13.4%. The viability, T/C [29] was 14.4% and the viability, T/C [30] was 0.5%.
